In series [1] the test system is Sprague Dawley rats. The experiment in a line: Behavioral effects, functional observational battery. It is filed as in vivo. Particulars: single dermal dose 50, 250, 750 mg/kg.
Series [2] has as its system dogs. The experiment in a line: Cardiovascular telemetry study in the unrestrained conscious non-naïve dog. The following applies: dermal 10, 25 and 50 mg/kg; up to 48 hours. It is filed as in vivo.
Series [3] concerns healthy male and female volunteers. The experiment in a line: Phase 1 clinical study: skin irritation assessment (dermal response score 0-7). It is filed as in vivo, human. The following applies: all dose groups. As to the method:
Skin irritation due to study drug application was measured by a dermal response score of 0-7 assigned for each study drug application site prior to and 30 min following each dose administration. A score of 6 or 7 was considered a severe reaction. Pre-dose assessments during the multiple dosing served as the 12 hour post-dose assessment of the prior dose.

Consider `CCN(CC)CCOC(=O)C(C)c1ccc(CC(C)C)cc1` (stereo not drawn) [2-(diethylamino)ethyl 2-(4-isobutylphenyl)propionate], for which the “neurobehavioral changes (FOB test)” value in series [1] was 250, and 750 mg/kg of ibuprofenamine were not associated with any. For the same compound, the “qualitative ECG parameters” value in series [2] is 25, and 50 mg/kg of ibuprofenamine and vehicle in dogs. There were no effects. Moreover, the “maximum skin irritation score (0-7)” value in series [3] was at most 3.
